These results are taken from patent US9902725B2, “Heterocyclic derivatives as RORgamma modulators” (GENFIT, priority 2014, dated 2018).

A value given as a limit tells only on which side of the number the result lay.

The IC50 is the concentration needed to halve the response being measured. Low values mean higher potency, high ones lower potency.

The target in this experiment is T1, RORγt ligand-binding domain (RORγt-LBD) (Homo sapiens, UniProt P51449).
T1 construct: 20 nM recombinantly expressed RORγ-LBD fused to GST
T1 sequence (P51449 269-508 limits assumed): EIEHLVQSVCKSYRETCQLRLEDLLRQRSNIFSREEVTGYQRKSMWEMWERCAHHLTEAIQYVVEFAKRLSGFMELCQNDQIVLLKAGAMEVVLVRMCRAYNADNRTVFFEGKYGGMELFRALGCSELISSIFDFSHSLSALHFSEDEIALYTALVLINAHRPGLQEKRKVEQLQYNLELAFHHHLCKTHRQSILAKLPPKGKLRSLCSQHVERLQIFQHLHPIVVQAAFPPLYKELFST
In words: Time-resolved FRET (TR-FRET) RORγt coactivator assay. Type of experiment: biochemical. Particulars: GST-RORγ-LBD, biotinylated RIP140 peptide, coactivator displacement. An excerpt: Time-resolved FRET (TR-FRET) RORγt coactivator assay was used to identify RORγ modulator compounds with ligand-dependent coactivator displacement. The assay uses a d2-labeled anti-GST antibody, synthetic N-terminally biotinylated peptide which is derived from nuclear receptor coactivator protein RIP140, and a RORγt ligand-binding domain (RORγt-LBD) that is tagged with glutathione-S-transferase (GST). The influence of compounds on the RORγ-peptide interaction relies on the binding dependent energy transfer from a donor to an acceptor fluorophore attached to the binding partner of interest. […] For reduction of background from compound fluorescence, TR-FRET method makes use of generic fluorophore labels and time resolved detection.
The assays were done in a final volume of 20 μl in a 384 well plate in a CHAPS buffer (2 mM CHAPS; 1 mM DTT, 2 mM EDTA; 0.1% BSA), containing 20 nM recombinantly expressed RORγ-LBD fused to GST, 30 nM N-terminally biotinylated peptide, 1 nM streptavidin-terbium conjugate and 20 nM d2 labeled-anti-GST. Test compounds were diluted using 10 mM stock solution. The range of the final compound concentrations used in this test was from 0.3 nM to 30 μM (logarithmic scale). DMSO content of the samples was kept at 1%. The assay was equilibrated for 2 hours in the dark at room temperature in 384 well plates (Falcon). The signal was detected by an Ultra384 reader (TECAN). The results were visualized by plotting the ratio between the emitted light at 665 nm and 620 nm. A basal level of RORγ-peptide formation is observed in the absence of added compound. Compounds that promote coactivator displacement induce a concentration-dependent decrease in time-resolved fluorescent signal. Data were collected and analyzed using GraphPad Prism software (GraphPad Software V5.02, San Diego Calif. USA). IC50 in μM and Emax in % were reported for each compound.
A general note: Time-resolved FRET reads energy transfer from a long-lived donor to a nearby acceptor.
`CCCCC(NC(=O)Cc1ccc2[nH]cc(CCC(=O)OC(C)(C)C)c2c1)c1ccc(C)cc1N1CCCCC1` (stereo not drawn) [Cpd. 230, tert-butyl 3-{5-[({1-[4-methyl-2-(piperidin-1-yl)phenyl]pentyl}carbamoyl)methyl]-1H-indol-3-yl}propanoate] showed a concentration for half-maximal inhibition (IC50) of 1000 to 10000 nM.
In turn, `CN(C)c1ccccc1C(NC(=O)Cc1ccc2[nH]cc(CC(=O)O)c2c1)c1ccccc1` (stereo not drawn) [compound 71, 2-{5-[({[2-(dimethylamino)phenyl](phenyl)methyl}carbamoyl)methyl]-1H-indol-3-yl}acetic acid] gave an IC50 of 1000 to 10000 nM.
As for `CN(C)c1ccccc1C(NC(=O)Cc1ccc2[nH]cc(CCC(=O)OC(C)(C)C)c2c1)c1ccccc1` (stereo not drawn) [Cpd. 53, tert-butyl 3-{5-[({[2-(dimethylamino)phenyl](phenyl)methyl}carbamoyl)methyl]-1H-indol-3-yl}propanoate], the figure is 1000 to 10000 nM.
As for `CC(C)(C)OC(=O)CCc1c[nH]c2ccc(CC(=O)NC3(c4ccccc4N4CCCCC4)CCCCC3)cc12` [Cpd. 143, tert-butyl 3-{5-[({1-[2-(piperidin-1-yl)phenyl]cyclohexyl}carbamoyl)methyl]-1H-indol-3-yl}propanoate], the figure is 1000 to 10000 nM; as for `Cc1ccc(C(NC(=O)Cc2ccc3[nH]cc(CCC(=O)OC(C)(C)C)c3c2)c2nccs2)c(N2CCCCC2)c1` (stereo not drawn) [Cpd. 139, tert-butyl 3-{5-[({[4-methyl-2-(piperidin-1-yl)phenyl](1,3-thiazol-2-yl)methyl}carbamoyl)methyl]-1H-indol-3-yl}propanoate], under 1000 nM; as for `CCCCC(NC(=O)Cc1ccc2[nH]cc(CCC(=O)OC(C)(C)C)c2c1)c1ccccc1N(CC)CC` (stereo not drawn) [Cpd. 218, tert-butyl 3-{5-[({1-[2-(diethylamino)phenyl]pentyl}carbamoyl)methyl]-1H-indol-3-yl}propanoate], 1000 to 10000 nM.
Under `Cc1ccc(C(NC(=O)Cc2ccc3[nH]cc(CCC(=O)O)c3c2)c2ccccc2)c(N2CCN(C)CC2)c1` (stereo not drawn) [compound 103, 3-{5-[({[4-methyl-2-(4-methylpiperazin-1-yl)phenyl](phenyl)methyl}carbamoyl)methyl]-1H-indol-3-yl}propanoic acid] stands 1000 to 10000 nM; under `Cc1ccc(C(NC(=O)Cc2ccc3[nH]cc(CCC(=O)OC(C)(C)C)c3c2)c2ccccc2)c(N2CCN(Cc3ccccc3)CC2)c1` (stereo not drawn) [compound 263, tert-butyl 3-{5-[({[2-(4-benzylpiperazin-1-yl)-4-methylphenyl](phenyl)methyl}carbamoyl)methyl]-1H-indol-3-yl}propanoate], under 1000 nM.
`O=C(O)CCc1n[nH]c2ccc(CC(=O)NC(c3ccccc3)c3ccccc3N3CCCCC3)cc12` (stereo not drawn) [compound 237, 3-{5-[({phenyl[2-(piperidin-1-yl)phenyl]methyl}carbamoyl)methyl]-1H-indazol-3-yl}propanoic acid] showed an IC50 of under 1000 nM.
The compound `Cc1cc(F)ccc1C(NC(=O)Cc1ccc2[nH]cc(CCC(=O)O)c2c1)c1ccccc1` (stereo not drawn) [compound 46, 3-[5-({[(4-fluoro-2-methylphenyl)(phenyl)methyl]carbamoyl}methyl)-1H-indol-3-yl]propanoic acid] had an IC50 of under 1000 nM.
The compound `CC(C)(C)OC(=O)CCc1c[nH]c2ccc(CC(=O)NC(c3ccccc3)c3cc(Cl)ccc3N3CCCCC3)cc12` (stereo not drawn) [Cpd. 61, tert-butyl 3-{5-[({[5-chloro-2-(piperidin-1-yl)phenyl](phenyl)methyl}carbamoyl)methyl]-1H-indol-3-yl}propanoate] displayed an IC50 of 1000 to 10000 nM.
The compound `Cc1cnc(C(NC(=O)Cc2ccc3[nH]cc(CCC(=O)O)c3c2)c2ccccc2N2CCCCC2)s1` (stereo not drawn) [compound 154, 3-[5-({[(5-methyl-1,3-thiazol-2-yl)[2-(piperidin-1-yl)phenyl]methyl]carbamoyl}methyl)-1H-indol-3-yl]propanoic acid] showed a 50% inhibitory concentration (IC50) of under 1000 nM.
As for `O=C(O)Cc1c[nH]c2ccc(CC(=O)NC(c3ccccc3)c3ccccc3N3CCCCCC3)cc12` (stereo not drawn) [compound 75, 2-{5-[({[2-(azepan-1-yl)phenyl](phenyl)methyl}carbamoyl)methyl]-1H-indol-3-yl}acetic acid], the figure is 1000 to 10000 nM; as for `N=C(N)NC(=O)CCc1c[nH]c2ccc(CC(=O)NC(c3ccccc3)c3ccccc3N3CCCCC3)cc12` (stereo not drawn) [compound 235, 1-{2-[(2-{3-[2-(carbamimidoylcarbamoyl)ethyl]-1H-indol-5-yl}acetamido)(phenyl)methyl]phenyl}piperidin-1-ium chloride], 1000 to 10000 nM.
As to `CCOc1ccc(C(NC(=O)Cc2ccc3[nH]cc(CCC(=O)OC(C)(C)C)c3c2)c2ccccc2)c(OCC)c1` (stereo not drawn) [Cpd. 246, tert-butyl 3-[5-({[(2,4-diethoxyphenyl)(phenyl)methyl]carbamoyl}methyl)-1H-indol-3-yl]propanoate], the IC50 was under 1000 nM.
For the compound `CC(C)(C)OC(=O)CCc1c[nH]c2ccc(CC(=O)NC(c3ccccc3)c3ccc(F)cc3N3CCCC3)cc12` (stereo not drawn) [Cpd. 92, tert-butyl 3-{5-[({[4-fluoro-2-(pyrrolidin-1-yl)phenyl](phenyl)methyl}carbamoyl)methyl]-1H-indol-3-yl}propanoate], the half-maximal inhibitory concentration (IC50) lay within 1000 to 10000 nM.
In turn, `CNc1cc(C)ccc1C(NC(=O)Cc1ccc2[nH]cc(CCC(=O)O)c2c1)c1ccccc1` (stereo not drawn) [compound 204, 3-{5-[({[4-methyl-2-(methylamino)phenyl](phenyl)methyl}carbamoyl)methyl]-1H-indol-3-yl}propanoic acid] yielded a half-inhibitory concentration (IC50) of under 1000 nM.
Under `CC(C)CC(NC(=O)Cc1ccc2[nH]cc(CC(=O)O)c2c1)c1ccccc1N1CCCCC1` (stereo not drawn) [compound 194, 2-{5-[({3-methyl-1-[2-(piperidin-1-yl)phenyl]butyl}carbamoyl)methyl]-1H-indol-3-yl}acetic acid] stands 1000 to 10000 nM.
Under `COC(=O)Cc1c[nH]c2ccc(CC(=O)NC(c3ccc(C)s3)c3ccc(C)cc3C)cc12` (stereo not drawn) [Cpd. 222, methyl 2-[5-({[(2,4-dimethylphenyl)(5-methylthiophen-2-yl)methyl]carbamoyl}methyl)-1H-indol-3-yl]acetate] stands 1000 to 10000 nM; under `Cc1ccc(C(NC(=O)Cc2ccc3[nH]cc(CCC(=O)O)c3c2)c2ccccc2)c(N2CCCCCC2)c1` (stereo not drawn) [compound 251, 3-{5-[({[2-(azepan-1-yl)-4-methylphenyl](phenyl)methyl}carbamoyl)methyl]-1H-indol-3-yl}propanoic acid], under 1000 nM.
As for `CC(C)CC(NC(=O)Cc1ccc2[nH]cc(CCC(=O)OC(C)(C)C)c2c1)c1ccccc1OC(C)C` (stereo not drawn) [Cpd. 240, tert-butyl 3-{5-[({3-methyl-1-[2-(propan-2-yloxy)phenyl]butyl}carbamoyl)methyl]-1H-indol-3-yl}propanoate], the figure is under 1000 nM; as for `CC(C)(C)OC(=O)CCc1c[nH]c2ccc(CC(=O)NC(c3ccccc3)c3ccccc3-n3cccc3)cc12` (stereo not drawn) [Cpd. 106, tert-butyl 3-{5-[({phenyl[2-(1H-pyrrol-1-yl)phenyl]methyl}carbamoyl)methyl]-1H-indol-3-yl}propanoate], 1000 to 10000 nM.
On to `CON(C)C(=O)Cc1c[nH]c2ccc(CC(=O)NC(c3ccccc3)c3ccccc3N3CCCCC3)cc12` (stereo not drawn) [compound 258, N-methoxy-N-methyl-2-{5-[({phenyl[2-(piperidin-1-yl)phenyl]methyl}carbamoyl)methyl]-1H-indol-3-yl}acetamide], for which the IC50 is under 1000 nM.
As for `CC(C)(C)OC(=O)CCc1c[nH]c2ccc(CC(=O)NC(c3ccccc3)c3ccccc3N)cc12` (stereo not drawn) [Cpd. 51, tert-butyl 3-[5-({[(2-aminophenyl)(phenyl)methyl]carbamoyl}methyl)-1H-indol-3-yl]propanoate], the figure is 1000 to 10000 nM; as for `Cc1cccc(CC(NC(=O)Cc2ccc3[nH]cc(CCC(=O)O)c3c2)c2ccccc2N2CCCCC2)c1` (stereo not drawn) [compound 176, 3-[5-({[2-(3-methylphenyl)-1-[2-(piperidin-1-yl)phenyl]ethyl]carbamoyl}methyl)-1H-indol-3-yl]propanoic acid], 1000 to 10000 nM.
In the case of `Cc1ccc(C(NC(=O)Cc2ccc3[nH]cc(CCC(=O)O)c3c2)c2ccccc2)c(N)c1` (stereo not drawn) [compound 184, 3-[5-({[(2-amino-4-methylphenyl)(phenyl)methyl]carbamoyl}methyl)-1H-indol-3-yl]propanoic acid], the half-maximal inhibitory concentration (IC50) lay in the range of 1000 to 10000 nM.
As for `Cn1ccc2cccc(C(NC(=O)Cc3ccc4[nH]cc(CCC(=O)O)c4c3)c3ccccc3)c21` (stereo not drawn) [compound 170, 3-[5-({[(1-methyl-1H-indol-7-yl)(phenyl)methyl]carbamoyl}methyl)-1H-indol-3-yl]propanoic acid], the figure is under 1000 nM.
